The source of these data is paper PMC11123956, “Nobiletin Stimulates Adrenal Hormones and Modulates the Circadian Clock in Mice” (Nutrients, 2024).

One assay deals with PDE3. The arrangement: method as in PMID 19906817. To be noted: cited from earlier work.
For a further assay, the system named is serum ACTH. As to the kind of experiment: Serum ACTH ELISA. It is filed as in vivo, mice. To be noted: an hour after injection (50 or 100 mg/kg). The protocol: Serum corticosterone, adrenaline, and adreno-corticotropic hormone (ACTH) levels, and corticotropin releasing factor (CRF) in the hypothalamus, were measured using enzyme-linked immunosorbent assay (ELISA). A corticosterone ELISA kit (Cayman Chemical Company, Ann Arbor, MI, USA), an adrenaline ELISA kit (Abcam, Cambridge, UK), an ACTH ELISA kit (Phoenix Pharmaceuticals Inc., Burlingame, CA, USA), and a CRF ELISA kit (Yanaihara Institute Inc., Shizuoka, Japan) were used. Assays were conducted according to the manufacturer’s instructions. Blood samples were collected from the mice at ZT4, 5, and 7 after the administration of nobiletin at ZT3 (10 mg/kg and 100 mg/kg, in Figure 3A,B). Blood glucose levels were measured using a Glucose PILOT kit (Aventir Biotech, LLC, Carlsbad, CA, USA). The range of blood glucose that could be precisely measured with the kit was 20–600 mg/dL. Before measurement, we administered nobiletin (100 mg/kg body weight) to the mice, after 4 h fasting. Blood was collected from the tail vein of each mouse for measurement. The measurements were conducted at 0, 15, 30, 45, 60, and 90 min after reagent administration in Figure 3C. Samples were collected one hour after nobiletin treatment (50 or 100 mg/kg; Figure 3D,E), or 2 or 4 h after treatment in Figure 3F. […]

For another assay, the target named is T1, PDE11A4 (Homo sapiens, UniProt Q9HCR9).
T1 construct: purchased Eurofins Panlabs Discovery Services Taiwan, Ltd. (contract assay); host or cells: insect Sf9 cells
The assay can be described thus: PDE enzyme  assay, PDE11A4. It counts as biochemical. The protocol: (§1) Enzyme assays for various subtypes of PDE (Table 1 and Figure 4) were conducted by Eurofins Panlabs Discovery Services Taiwan, Ltd. (New Taipei City, Taiwan). In the assays, five or six concentrations of nobiletin over five or six orders of magnitude were examined in experiments conducted in duplicate to determine the IC50 (concentration of nobiletin exerting half-maximal inhibition of control-specific activity). IC50 values were determined by nonlinear least squares regression analysis using MathIQTM (ID Business Solutions Ltd., Woking, UK). FAM-cAMP, FAM-cGMP (0.1 μM), and 100 μM [^3H]cGMP + cGMP were used for the substrate in the human recombinant insect Sf9 cells or Bovine retinal rod outer segments depending on the PDE subtype. The spectrofluorometric quantitation of fluorescein-AMP-IMAP, fluorescein-GMP-IMAP, or [^3H] guanosine was used depending on the PDE subtype. A known […] of each PDE was used as the positive control.

The target of another assay is T2, PDE2A (Homo sapiens, UniProt O00408).
T2 construct: purchased Eurofins Panlabs Discovery Services Taiwan, Ltd. (contract assay); host or cells: insect Sf9 cells
The assay can be described thus: PDE enzyme  assay, PDE2A. It is filed as biochemical. The protocol:
as §1

A further assay has as its target T3, PDE6 (Bos taurus, UniProt P11541+P23439).
T3 construct: Bovine retinal rod outer segments; tissue Eurofins Panlabs Discovery Services Taiwan, Ltd. (contract assay); host or cells: bovine retinal rod outer segments
The assay can be described thus: PDE enzyme  assay, PDE6. It is filed as biochemical, Bovine. The protocol: as §1

For a further assay, the target named is T4, PDE7A (Homo sapiens, UniProt Q13946).
T4 construct: purchased Eurofins Panlabs Discovery Services Taiwan, Ltd. (contract assay); host or cells: insect Sf9 cells
The assay can be described thus: PDE enzyme  assay, PDE7A. It counts as biochemical. The protocol:
as §1

T4 sequence (Q13946 whole entry): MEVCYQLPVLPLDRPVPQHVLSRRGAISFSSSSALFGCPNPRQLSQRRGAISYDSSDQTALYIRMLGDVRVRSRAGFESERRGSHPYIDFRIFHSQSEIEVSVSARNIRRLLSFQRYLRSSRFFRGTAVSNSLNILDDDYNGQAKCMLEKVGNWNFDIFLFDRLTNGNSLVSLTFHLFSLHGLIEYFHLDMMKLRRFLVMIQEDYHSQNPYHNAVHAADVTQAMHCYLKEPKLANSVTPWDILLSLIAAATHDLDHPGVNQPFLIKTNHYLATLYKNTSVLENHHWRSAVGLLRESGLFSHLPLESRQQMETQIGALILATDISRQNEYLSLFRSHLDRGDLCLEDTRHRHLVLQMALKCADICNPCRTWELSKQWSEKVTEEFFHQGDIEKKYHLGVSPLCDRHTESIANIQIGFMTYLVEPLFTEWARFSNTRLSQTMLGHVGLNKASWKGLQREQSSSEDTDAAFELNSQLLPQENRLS
T2 sequence (O00408 whole entry): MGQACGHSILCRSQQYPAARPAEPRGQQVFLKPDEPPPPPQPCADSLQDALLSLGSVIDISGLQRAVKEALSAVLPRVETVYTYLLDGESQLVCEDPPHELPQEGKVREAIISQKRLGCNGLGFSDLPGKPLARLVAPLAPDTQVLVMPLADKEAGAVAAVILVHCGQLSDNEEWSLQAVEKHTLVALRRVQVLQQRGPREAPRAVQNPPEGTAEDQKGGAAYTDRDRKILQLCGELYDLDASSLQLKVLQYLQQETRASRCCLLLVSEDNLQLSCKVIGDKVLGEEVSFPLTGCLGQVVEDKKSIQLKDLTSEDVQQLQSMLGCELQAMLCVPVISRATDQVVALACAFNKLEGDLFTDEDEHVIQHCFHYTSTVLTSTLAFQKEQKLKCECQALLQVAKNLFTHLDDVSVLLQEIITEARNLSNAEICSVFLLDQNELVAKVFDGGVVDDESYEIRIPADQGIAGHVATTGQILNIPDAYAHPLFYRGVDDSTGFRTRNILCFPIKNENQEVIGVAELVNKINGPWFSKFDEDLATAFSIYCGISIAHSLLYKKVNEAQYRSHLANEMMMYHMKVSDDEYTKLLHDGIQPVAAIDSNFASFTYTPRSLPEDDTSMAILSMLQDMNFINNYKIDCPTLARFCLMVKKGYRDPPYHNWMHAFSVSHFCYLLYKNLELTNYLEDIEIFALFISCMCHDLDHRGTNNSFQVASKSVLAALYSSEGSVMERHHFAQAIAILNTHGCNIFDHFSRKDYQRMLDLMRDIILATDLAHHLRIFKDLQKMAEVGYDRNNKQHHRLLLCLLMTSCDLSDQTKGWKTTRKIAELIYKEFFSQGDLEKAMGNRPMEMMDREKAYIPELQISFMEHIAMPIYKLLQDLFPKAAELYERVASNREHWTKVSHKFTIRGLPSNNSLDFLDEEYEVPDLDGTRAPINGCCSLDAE
T1 sequence (Q9HCR9 whole entry): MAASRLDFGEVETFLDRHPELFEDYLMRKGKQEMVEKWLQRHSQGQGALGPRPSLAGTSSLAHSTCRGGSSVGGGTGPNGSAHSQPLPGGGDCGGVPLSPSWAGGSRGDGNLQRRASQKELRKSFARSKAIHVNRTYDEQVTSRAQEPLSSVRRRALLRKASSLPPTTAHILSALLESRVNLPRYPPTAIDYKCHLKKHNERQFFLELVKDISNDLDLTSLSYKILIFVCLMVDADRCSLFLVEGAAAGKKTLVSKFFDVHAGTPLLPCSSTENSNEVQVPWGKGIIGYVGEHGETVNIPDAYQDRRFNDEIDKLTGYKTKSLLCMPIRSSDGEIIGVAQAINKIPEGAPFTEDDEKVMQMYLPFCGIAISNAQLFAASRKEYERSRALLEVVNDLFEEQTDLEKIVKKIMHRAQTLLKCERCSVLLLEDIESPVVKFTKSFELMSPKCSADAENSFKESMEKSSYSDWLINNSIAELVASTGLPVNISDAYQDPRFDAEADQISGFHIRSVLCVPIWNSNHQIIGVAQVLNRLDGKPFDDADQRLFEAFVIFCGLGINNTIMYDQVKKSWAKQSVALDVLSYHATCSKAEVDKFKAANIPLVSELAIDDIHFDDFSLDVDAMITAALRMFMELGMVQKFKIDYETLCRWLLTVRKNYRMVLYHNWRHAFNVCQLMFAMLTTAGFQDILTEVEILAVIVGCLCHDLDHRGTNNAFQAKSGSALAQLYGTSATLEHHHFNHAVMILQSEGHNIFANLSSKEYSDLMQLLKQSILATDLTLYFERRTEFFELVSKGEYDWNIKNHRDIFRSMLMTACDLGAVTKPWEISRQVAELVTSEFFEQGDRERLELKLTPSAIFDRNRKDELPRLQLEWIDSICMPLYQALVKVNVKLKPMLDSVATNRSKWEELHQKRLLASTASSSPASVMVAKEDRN
T3 sequence (P11541 2-856 limits assumed): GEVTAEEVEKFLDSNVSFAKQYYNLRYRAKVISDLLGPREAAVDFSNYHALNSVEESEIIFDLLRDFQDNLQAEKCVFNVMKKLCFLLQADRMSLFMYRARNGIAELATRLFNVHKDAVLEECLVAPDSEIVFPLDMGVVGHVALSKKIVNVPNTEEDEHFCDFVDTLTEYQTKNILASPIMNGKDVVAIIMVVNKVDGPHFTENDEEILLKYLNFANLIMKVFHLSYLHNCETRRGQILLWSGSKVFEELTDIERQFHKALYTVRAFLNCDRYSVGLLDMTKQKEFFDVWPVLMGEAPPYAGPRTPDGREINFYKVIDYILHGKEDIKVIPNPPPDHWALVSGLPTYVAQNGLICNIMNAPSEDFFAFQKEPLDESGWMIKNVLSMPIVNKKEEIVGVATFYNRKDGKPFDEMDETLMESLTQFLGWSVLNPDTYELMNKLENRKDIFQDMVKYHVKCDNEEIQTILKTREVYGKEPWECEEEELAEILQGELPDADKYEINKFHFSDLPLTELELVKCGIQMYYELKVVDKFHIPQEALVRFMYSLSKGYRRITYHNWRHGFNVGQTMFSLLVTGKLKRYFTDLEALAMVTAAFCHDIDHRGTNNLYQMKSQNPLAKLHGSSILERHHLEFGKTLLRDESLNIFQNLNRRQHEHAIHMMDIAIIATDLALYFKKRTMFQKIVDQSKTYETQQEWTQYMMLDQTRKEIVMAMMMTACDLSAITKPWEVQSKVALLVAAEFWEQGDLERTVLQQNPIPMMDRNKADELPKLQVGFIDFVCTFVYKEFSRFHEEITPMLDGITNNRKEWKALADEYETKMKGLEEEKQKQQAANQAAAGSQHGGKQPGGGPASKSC
T3 sequence (P23439 2-850 limits assumed): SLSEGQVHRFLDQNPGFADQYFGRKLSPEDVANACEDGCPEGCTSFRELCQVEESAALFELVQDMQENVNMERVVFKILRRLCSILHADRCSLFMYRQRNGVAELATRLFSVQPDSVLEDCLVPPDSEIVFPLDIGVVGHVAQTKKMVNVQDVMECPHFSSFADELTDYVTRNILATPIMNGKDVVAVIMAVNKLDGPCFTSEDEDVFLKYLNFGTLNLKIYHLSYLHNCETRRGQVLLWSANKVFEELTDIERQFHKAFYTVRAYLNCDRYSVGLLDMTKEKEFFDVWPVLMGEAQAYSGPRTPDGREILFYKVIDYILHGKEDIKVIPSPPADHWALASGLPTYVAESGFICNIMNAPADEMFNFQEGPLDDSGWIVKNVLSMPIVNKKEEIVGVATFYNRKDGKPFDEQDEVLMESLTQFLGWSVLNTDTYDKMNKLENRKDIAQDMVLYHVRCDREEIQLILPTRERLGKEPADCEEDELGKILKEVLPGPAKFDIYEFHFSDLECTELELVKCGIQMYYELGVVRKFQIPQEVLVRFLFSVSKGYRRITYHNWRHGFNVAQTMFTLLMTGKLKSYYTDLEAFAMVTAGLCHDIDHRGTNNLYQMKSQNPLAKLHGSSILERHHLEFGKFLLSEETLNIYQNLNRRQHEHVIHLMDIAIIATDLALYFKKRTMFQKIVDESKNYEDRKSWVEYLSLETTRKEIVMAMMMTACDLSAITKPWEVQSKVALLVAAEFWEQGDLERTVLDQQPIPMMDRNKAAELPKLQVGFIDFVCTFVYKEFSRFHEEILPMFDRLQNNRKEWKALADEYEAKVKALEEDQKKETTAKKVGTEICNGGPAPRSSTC

Regarding `COc1ccc(-c2cc(=O)c3c(OC)c(OC)c(OC)c(OC)c3o2)cc1OC` [nobiletin], the IC50 in the assay with PDE3 was 10.4 µM; on PDE11A4, 31 µM; against PDE2A, 9.91 µM; on PDE6, 74.5 µM; against PDE7A, 11.9 µM. Further, in the assay on serum ACTH, the “serum ACTH” value is given as “did not change significantly”.
